Test results: US7973219B2, “Method for producing transgenic plants resistant to weed control compounds which disrupt the porphyrin pathways of plants” (Sumitomo Chemical Company, Limited, priority 1998, dated 2011)

What was measured:
[1] = system: E. coli BT3/pACYCSP+pTVGMP strain; experiment: Growth of E. coli BT3/pACYCSP+pTVGMP (variant soybean PPO) with herbicidal compound; format: cell-based, Escherichia coli; conditions: 18 hours culture, Table 7
Source text: According to the description of Gibson, L. C. D. et al., Proc. Natl. Acad. Sci. USA, 92; p 1941 (1995), the DNA fragment containing bchH gene prepared in Example 1 was digested with the restriction enzymes NdeI and BglII. The resultant DNA fragment was inserted between NdeI restriction site and BamHI restriction site of expression vector pET11a (manufactured by Stratagene) to obtain plasmid pETBCH (FIG. 1). This plasmid pETBCH was introduced into E. coli BL21(DE3) strain competent cells (manufactured by Stratagene) according to the manual attached to the competent cells to obtain E. coli BL21(DE3)/pETBCH strain. The strain was inoculated into 1.5 ml LB liquid culture medium (1% tryptone, 0.5% yeast extract, 0.5% NaCl) containing 100 μg/ml ampicillin in a tube (14×10 mm), and the tube was covered with aluminum foil (hereinafter referred to as dark conditions), cultured with shaking at 37° C. under light of fluorescent lamp (about 8000 lux). When the absorbance at 600 nm of the liquid culture medium became about 0.6, isopropyl β-D-thiogalactopyranoside (IPTG) was added to the liquid culture medium so that the final concentration was 0.4 mM, and the culture was continued for about additional 20 hours. […] In contrast to this, when E. coli BL21(DE3)/pETBCH strain was cultured according to the same manner (with IPTG) except that the tube was not covered with aluminum foil (hereinafter referred to as light conditions), E. coli grew and turned red as above.
Plasmids pTVGMP and pTV118N prepared in Example 11 were introduced into E. coli BT3/pACYCSP strain prepared in Example 3 respectively according to the method described in Flanahan, D. J., Mol. Biol., 166; p 557 (1983). E. coli BT3/pACYCSP+pTVGMP strain bearing plasmids pACYCSP and pTVGMP, and E. coli BT3/pACYCSP+pTV118N strain bearing plasmids pACYCSP and pTV118N were obtained by culturing the above strains in YPT medium containing 100 μg/ml ampicillin, 15 μg/ml chloramphenicol and 10 μg/ml kanamycin.
These E. coli strains were inoculated into YPT medium containing 10 or 1 ppm of PPO inhibitory-type herbicidal compound represented by Structure 8, 100 (ig/ml ampicillin, 15 μg/ml chloramphenicol, 10 μg/ml kanamycin, 10 μg/ml hemin and 50 μg/ml aminolevulinic acid, cultured under dark conditions or light conditions according to the same manner as in Example 2. Then, 18 hours after initiation of culture, the absorbance of liquid culture medium was measured at 600 nm. By taking the absorbance of the medium without the herbicidal compound as 1, the relative value of the absorbance of the medium containing the herbicidal compound was calculated.

[2] = system: E. coli BT3/pACYCSP+pRASSL8 strain; experiment: Growth of E. coli BT3/pACYCSP+pRASSL8 with herbicidal compound; format: cell-based, Escherichia coli; conditions: 1 ppm, 18 hours culture, Table 16
Source text: According to the description of Gibson, L. C. D. et al., Proc. Natl. Acad. Sci. USA, 92; p 1941 (1995), the DNA fragment containing bchH gene prepared in Example 1 was digested with the restriction enzymes NdeI and BglII. The resultant DNA fragment was inserted between NdeI restriction site and BamHI restriction site of expression vector pET11a (manufactured by Stratagene) to obtain plasmid pETBCH (FIG. 1). This plasmid pETBCH was introduced into E. coli BL21(DE3) strain competent cells (manufactured by Stratagene) according to the manual attached to the competent cells to obtain E. coli BL21(DE3)/pETBCH strain. […] When the absorbance at 600 nm of the liquid culture medium became about 0.6, isopropyl β-D-thiogalactopyranoside (IPTG) was added to the liquid culture medium so that the final concentration was 0.4 mM, and the culture was continued for about additional 20 hours. […]
These E. coli strains were inoculated into YPT medium containing 1 ppm of the PPO inhibitory-type herbicidal compound represented by Structure 8, 100 μg/ml ampicillin, 15 μg/ml chloramphenicol, 10 μg/ml kanamycin, 10 μg/ml hemin and 50 μg/ml aminolevulinic acid, cultured under dark conditions or light conditions according to the same manner as in Example 2. Then, 18 hours after initiation of culture, the absorbance of the liquid culture medium was measured at 600 nm. […]

## C#CCOc1cc(N2C(=O)C3=C(CCCC3)C2=O)c(F)cc1Cl [Structure 8]
[1]; in the dark, 1 ppm
  Relative absorbance: 0.94
[1]; in the dark, 10 ppm
  Relative absorbance: 0.91
[1]; in the light, 1 ppm
  Relative absorbance: 0.85
[1]; in the light, 10 ppm
  Relative absorbance: 0.33
[2]; in the dark
  Relative absorbance: 1.0
[2]; in the light
  Relative absorbance: 0.79
